How the values were obtained:
HDAC4 = HDAC4 (Homo sapiens, UniProt P56524); test: HDAC enzyme assay; conditions: at 1 µM, initial results (data not shown)
HDAC2 = HDAC2 (Homo sapiens, UniProt Q92769); test: HDAC enzyme assay; conditions: for inhibition of HDAC2: at 1 µM, initial results (data not shown)
[1] = tested on: human dermal fibroblast (hDF) cells; test: Cell cytotoxicity MTS-PMS assay, hDF; assay type: cell-based; conditions: 72 h, read-out: hDF GI50

Chain of HDAC2 (Q92769 whole entry): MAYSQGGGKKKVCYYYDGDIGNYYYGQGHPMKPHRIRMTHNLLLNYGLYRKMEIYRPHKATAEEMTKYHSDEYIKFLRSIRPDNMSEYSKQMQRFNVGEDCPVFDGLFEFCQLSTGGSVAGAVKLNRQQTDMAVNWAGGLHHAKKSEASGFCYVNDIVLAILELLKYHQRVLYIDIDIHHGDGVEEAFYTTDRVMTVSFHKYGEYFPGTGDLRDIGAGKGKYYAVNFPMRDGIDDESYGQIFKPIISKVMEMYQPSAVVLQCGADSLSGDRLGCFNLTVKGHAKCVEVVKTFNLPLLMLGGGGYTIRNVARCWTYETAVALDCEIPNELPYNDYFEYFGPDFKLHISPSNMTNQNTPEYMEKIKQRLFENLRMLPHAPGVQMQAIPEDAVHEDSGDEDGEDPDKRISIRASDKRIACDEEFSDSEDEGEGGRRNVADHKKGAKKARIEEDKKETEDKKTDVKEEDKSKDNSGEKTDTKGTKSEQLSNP
Chain of HDAC4 (P56524 whole entry): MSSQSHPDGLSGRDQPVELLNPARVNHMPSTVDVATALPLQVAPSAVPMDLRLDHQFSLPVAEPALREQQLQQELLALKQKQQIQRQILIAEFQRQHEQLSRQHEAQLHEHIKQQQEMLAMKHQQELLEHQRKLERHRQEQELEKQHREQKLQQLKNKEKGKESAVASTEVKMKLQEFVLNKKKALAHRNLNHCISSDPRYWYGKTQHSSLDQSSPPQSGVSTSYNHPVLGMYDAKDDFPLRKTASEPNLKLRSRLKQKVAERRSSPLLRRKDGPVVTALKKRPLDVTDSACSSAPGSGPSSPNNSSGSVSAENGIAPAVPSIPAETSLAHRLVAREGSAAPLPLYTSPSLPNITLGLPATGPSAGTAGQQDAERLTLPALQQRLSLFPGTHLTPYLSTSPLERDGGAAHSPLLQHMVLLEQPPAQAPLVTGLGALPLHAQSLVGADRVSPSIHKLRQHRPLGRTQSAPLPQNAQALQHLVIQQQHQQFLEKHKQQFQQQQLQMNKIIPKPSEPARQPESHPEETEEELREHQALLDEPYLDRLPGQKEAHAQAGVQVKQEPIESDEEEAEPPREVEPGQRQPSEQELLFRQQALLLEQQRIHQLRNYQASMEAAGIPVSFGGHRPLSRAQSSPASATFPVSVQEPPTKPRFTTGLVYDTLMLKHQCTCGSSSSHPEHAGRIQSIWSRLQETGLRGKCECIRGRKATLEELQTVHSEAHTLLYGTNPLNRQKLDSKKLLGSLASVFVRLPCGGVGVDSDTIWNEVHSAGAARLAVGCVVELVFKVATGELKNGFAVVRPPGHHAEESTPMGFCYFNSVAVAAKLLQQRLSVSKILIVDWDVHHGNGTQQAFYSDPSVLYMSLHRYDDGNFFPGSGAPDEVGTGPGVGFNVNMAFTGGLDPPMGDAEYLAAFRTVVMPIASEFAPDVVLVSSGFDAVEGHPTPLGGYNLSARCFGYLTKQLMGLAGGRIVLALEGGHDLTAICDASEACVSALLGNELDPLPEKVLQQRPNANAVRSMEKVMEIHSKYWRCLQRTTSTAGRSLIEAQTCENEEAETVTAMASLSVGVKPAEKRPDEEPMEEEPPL

Row | inhibition of HDAC4 (HDAC4) | selectivity for Class I HDACs (HDAC2; HDAC2 versus Class II HDACs) | inhibition of HDAC2 (HDAC2) | Structure (SMILES) | GI50 [1] [µM]
1 | relatively little inhibition of HDAC4 | over 3,500 fold | selectively inhibited HDAC2 | CCOC(=O)NCCCC(=O)NCCc1ccccc1 [compound 1, Ethyl 3-(phenethylcarbamoyl)propylcarbamate] | > 100
2 | completely inhibited | – | – | O=C(CCCCCCC(=O)Nc1ccccc1)NO [compound 2, suberoylanilide hydroxamic acid, reference compound] | –
3 | relatively little inhibition of HDAC4 | – | selectively inhibited HDAC2 | O=C(CCCC(=O)NCCc1ccccc1)NO [compound 3, N^1-Hydroxy-N^5-phenethylglutaramide] | > 100
